# In patent US8987193B2, “Nisin derivatives and the use thereof” (University College Cork—National University of Ireland, Cork, priority 2008, dated 2015):
# “Also recorded” adds a separate entry of the source. Ends that are not written are not given here.
# Tests used:
# Staph. aureus DPC5245 = assay: Deferred antagonism assay; assay type: cell-based; conditions: producing strain; diameter of zone minus 5 mm; average of duplicates; St. aureus DPC5245
# Method: (§1) Deferred antagonism assays were performed by replicating strains on GM17 or GM17 x-gal agar plates and allowing them to grow overnight before overlaying with either GM17/BHI/TS/MH agar (0.75% w/v agar) seeded with the appropriate indicator strain. Zone size was calculated as the diameter of the zone of clearing minus the diameter of bacterial growth (5 mm) For higher throughput screening of N20PXX, XM21VX, XXK22T and XXX banks deferred antagonism assays were performed by replicating strains using a 96 pin replicator (Boekel) or spotting 5 μl of a fresh overnight culture on GM17 agar plates and allowing them to grow overnight. […] Additional sets of indicators were employed to further assess/reassess the bioactivity of a number of strains. […] For well-diffusion assays molten agar was cooled to 48° C. and seeded with the appropriate indicator strain. The inoculated medium was rapidly transferred into sterile Petri plates in 50 ml volumes, allowed to solidify and dried. Wells (4.6 mm in diameter) were then made in the seeded plates. Purified nisin and mutant nisins were resuspended in 0.005% acetic acid, serially diluted, 50 μl volumes were dispensed into the aforementioned wells and the plates incubated at 37° C. overnight. Bioactivity was expressed as arbitrary units/ml (AU/ml) and calculated as the reciprocal of the highest dilution that gave a definite zone multiplied by the conversion factor (i.e. 20 when 50 μl was used) (Ryan et al., 1996).
# (§2) As a consequence of the enhanced activities of K22T and K22S, a more in-depth investigation of this region was carried out. Saturation mutagenesis was undertaken to create a bank of nisin A hinge derivatives containing the vast majority of possible amino acid substitutions for each position. Although pPTPL was used successfully for random mutagenesis, its relatively large size of approx 10.5 kb was considered unsuitable for the complete plasmid PCR amplification approach utilized for saturation mutagenesis. A smaller (approx 6 kb) E. coli-L. lactis shuttle vector pCI372 was considered to be potentially more useful. Its suitability with respect to the in trans expression of nisA was confirmed by the ability of pDFO5 to restore the nisin positive phenotype. Saturation mutagenesis was performed on each codon using pDF05 and oligonucleotides (Table 5) that replace the specific codon with a NNK triplet, potentially encoding all 20 standard amino acids. Following complete plasmid amplification and introduction into the intermediate Top10 host, sequence analysis of a pooled bank of pDF05 derivatives confirmed randomization. Introduction of these variants into L. lactis NZ9800 allowed the expression of mutant nisin A peptides for further analysis. […] 46 residue conversions were isolated. All strains, regardless of bioactivity, were assessed with a view to comprehensively assessing the consequences of each individual hinge alteration.
# (§3) Values are an average of duplicate experiments and represent zone size (diameter of zone minus diameter of bacterial growth (i.e. 5 mm) relative to that of the NZ9800 pCI372nisA control. X=Mutants not identified.
# [1] = tested on: Staph. aureus ST528 (MRSA); assay: Deferred antagonism assay; assay type: cell-based; conditions: producing strain, diameter of zone minus diameter of bacterial growth (5 mm), average of duplicates
# Method: as §1, §2, §3
# [2] = tested on: Strep. agalactiae ATCC13813; assay: Deferred antagonism assay; assay type: cell-based; conditions: producing strain, diameter of zone minus 5 mm, average of duplicates
# Method: as §1, §2, §3
# indicator strains = assay: Deferred antagonism assays, various indicator strains (summary); assay type: cell-based; conditions: for bioactivity of the producing strain, in words: in general / against the strains tested; for Strain(s) against which the derivative (producing strain) displays enhanced bioactivity: relative to nisin A-producing control, value = strains listed
# Summary of the method: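 Producer strains were replicated on GM17 or GM17 x-gal agar, grown overnight, then overlaid with GM17, BHI, TS or MH soft agar (0.75% w/v) seeded with the indicator strain. Zone size was taken as the clearing diameter minus the diameter of bacterial growth (5 mm).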
# L. monocytogenes CBC1 = assay: Deferred antagonism assay; assay type: cell-based, Listeria monocytogenes; design: key: + = Enhanced bioactivity relative to control; − = Bioactivity equal to or less than control; NA = no activity evident; conditions: producing strain; L. mono CBC1
# Summary of the method: (§4)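 Producer strains replicated on GM17 or GM17 x-gal agar, grown overnight, then overlaid with 0.75% agar seeded with indicator strain. Zone size = diameter of clearing minus 5 mm growth diameter. Purified nisins tested by well diffusion at 37° C overnight; activity in AU/ml from reciprocal of highest active dilution × 20.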
# L. monocytogenes CBC2 = assay: Deferred antagonism assay; assay type: cell-based, Listeria monocytogenes; design: key: + = Enhanced bioactivity relative to control; − = Bioactivity equal to or less than control; NA = no activity evident; conditions: producing strain; L. mono CBC2
# Summary of the method: as §4
# L. monocytogenes CBC3 = assay: Deferred antagonism assay; assay type: cell-based, Listeria monocytogenes; design: key: + = Enhanced bioactivity relative to control; − = Bioactivity equal to or less than control; NA = no activity evident; conditions: producing strain; L. mono CBC3
# Summary of the method: as §4
# L. lactis CBC7 = assay: Deferred antagonism assay; assay type: cell-based; design: key: + = Enhanced bioactivity relative to control; − = Bioactivity equal to or less than control; NA = no activity evident; conditions: producing strain
# Summary of the method: as §4
# L. lactis CBC8 = assay: Deferred antagonism assay; assay type: cell-based; design: key: + = Enhanced bioactivity relative to control; − = Bioactivity equal to or less than control; NA = no activity evident; conditions: producing strain
# Summary of the method: as §4
# S. aureus CBC4 = assay: Deferred antagonism assay; assay type: cell-based; design: key: + = Enhanced bioactivity relative to control; − = Bioactivity equal to or less than control; NA = no activity evident; conditions: producing strain
# Summary of the method: as §4
# C. sporogenes CBC5 = assay: Deferred antagonism assay; assay type: cell-based, Clostridium sporogenes; design: key: + = Enhanced bioactivity relative to control; − = Bioactivity equal to or less than control; NA = no activity evident; conditions: producing strain
# L. plantarum CBC6 = assay: Deferred antagonism assay; assay type: cell-based, Lactobacillus plantarum; design: key: + = Enhanced bioactivity relative to control; − = Bioactivity equal to or less than control; NA = no activity evident; conditions: producing strain
# Summary of the method: as §4
substance,measurement,setting,value
"K22R: nisin A derivative, hinge substitution K22R (ITSISLCTPGCKTGALMGCNMRTATCHCSIHVSK; cysteine pairing not given here; also: lantibiotic nisin-A; UniProt P13068 24-57, looked up, variant K22R)",zone size relative to that of the NZ9800 pCI372nisA control,Staph. aureus DPC5245,45%
same,zone size relative to that of the NZ9800 pCI372nisA control,[1],42.5%
same,zone size relative to that of the NZ9800 pCI372nisA control,[2],56%
same,"bioactivity of the producing strain, in words",indicator strains,greatly reduced bioactivities
"M21Q: nisin A derivative, hinge substitution M21Q (ITSISLCTPGCKTGALMGCNQKTATCHCSIHVSK; cysteine pairing not given here; also: lantibiotic nisin-A; UniProt P13068 24-57, looked up, variant M21Q)",zone size relative to that of the NZ9800 pCI372nisA control,Staph. aureus DPC5245,94%
same,zone size relative to that of the NZ9800 pCI372nisA control,[1],92%
same,zone size relative to that of the NZ9800 pCI372nisA control,[2],98%
same,"bioactivity of the producing strain, in words",indicator strains,slightly diminished bioactivity
"M21R: nisin A derivative, hinge substitution M21R (ITSISLCTPGCKTGALMGCNRKTATCHCSIHVSK; cysteine pairing not given here; also: lantibiotic nisin-A; UniProt P13068 24-57, looked up, variant M21R)",zone size relative to that of the NZ9800 pCI372nisA control,Staph. aureus DPC5245,61%
same,zone size relative to that of the NZ9800 pCI372nisA control,[1],56.5%
same,zone size relative to that of the NZ9800 pCI372nisA control,[2],66%
same,"bioactivity of the producing strain, in words",indicator strains,greatly reduced bioactivities
"M21T: nisin A derivative, hinge substitution M21T (ITSISLCTPGCKTGALMGCNTKTATCHCSIHVSK; cysteine pairing not given here; also: lantibiotic nisin-A; UniProt P13068 24-57, looked up, variant M21T)",zone size relative to that of the NZ9800 pCI372nisA control,Staph. aureus DPC5245,112%
same,zone size relative to that of the NZ9800 pCI372nisA control,[1],110%
same,zone size relative to that of the NZ9800 pCI372nisA control,[2],110%
"N20D: nisin A derivative, hinge substitution N20D (ITSISLCTPGCKTGALMGCDMKTATCHCSIHVSK; cysteine pairing not given here; also: lantibiotic nisin-A; UniProt P13068 24-57, looked up, variant N20D)",zone size relative to that of the NZ9800 pCI372nisA control,Staph. aureus DPC5245,0%
same,zone size relative to that of the NZ9800 pCI372nisA control,[1],0%
same,zone size relative to that of the NZ9800 pCI372nisA control,[2],0%
same,"bioactivity of the producing strain, in words",indicator strains,devoid of bioactivity
"N20I: nisin A derivative, hinge substitution N20I (ITSISLCTPGCKTGALMGCIMKTATCHCSIHVSK; cysteine pairing not given here; also: lantibiotic nisin-A; UniProt P13068 24-57, looked up, variant N20I)",zone size relative to that of the NZ9800 pCI372nisA control,Staph. aureus DPC5245,49%
same,zone size relative to that of the NZ9800 pCI372nisA control,[2],61%
same,Bioactivity relative to control,L. monocytogenes CBC1,−
same,Bioactivity relative to control,L. monocytogenes CBC2,−
same,Bioactivity relative to control,L. monocytogenes CBC3,−
same,Bioactivity relative to control,L. lactis CBC7,−
same,Bioactivity relative to control,L. lactis CBC8,−
same,Bioactivity relative to control,S. aureus CBC4,−
same,Bioactivity relative to control,C. sporogenes CBC5,−
same,Bioactivity relative to control,L. plantarum CBC6,−
same,"bioactivity of the producing strain, in words",indicator strains,retention of relatively high levels of bioactivity
"N20W: nisin A derivative, hinge substitution N20W (ITSISLCTPGCKTGALMGCWMKTATCHCSIHVSK; cysteine pairing not given here; also: lantibiotic nisin-A; UniProt P13068 24-57, looked up, variant N20W)",zone size relative to that of the NZ9800 pCI372nisA control,[1],5.4%
same,zone size relative to that of the NZ9800 pCI372nisA control,[2],0%
same,Bioactivity relative to control,L. monocytogenes CBC1,−
same,Bioactivity relative to control,L. monocytogenes CBC2,−
same,Bioactivity relative to control,L. monocytogenes CBC3,−
same,Bioactivity relative to control,L. lactis CBC7,−
same,Bioactivity relative to control,L. lactis CBC8,−
same,Bioactivity relative to control,S. aureus CBC4,−
same,Bioactivity relative to control,C. sporogenes CBC5,−
same,Bioactivity relative to control,L. plantarum CBC6,−
"N20Y: nisin A derivative, hinge substitution N20Y (ITSISLCTPGCKTGALMGCYMKTATCHCSIHVSK; cysteine pairing not given here; also: lantibiotic nisin-A; UniProt P13068 24-57, looked up, variant N20Y)",zone size relative to that of the NZ9800 pCI372nisA control,Staph. aureus DPC5245,55%
same,zone size relative to that of the NZ9800 pCI372nisA control,[1],33.5%
same,zone size relative to that of the NZ9800 pCI372nisA control,[2],30.5%
"NisinA M21Y (ITSISLCTPGCKTGALMGCNYKTATCHCSIHVSK; not fully specified; also: lantibiotic: lanthionine rings and dehydro residues not placed; UniProt P13068 24-57, looked up, variant M21Y) [nisin A derivative, hinge substitution M21Y]",zone size relative to that of the NZ9800 pCI372nisA control,[2],65%
same,Bioactivity relative to control,L. monocytogenes CBC1,−
same,Bioactivity relative to control,L. monocytogenes CBC2,+
same,Bioactivity relative to control,L. monocytogenes CBC3,+
same,Bioactivity relative to control,L. lactis CBC7,+
same,Bioactivity relative to control,L. lactis CBC8,−
same,Bioactivity relative to control,S. aureus CBC4,+
same,Bioactivity relative to control,C. sporogenes CBC5,+
same,Bioactivity relative to control,L. plantarum CBC6,−
same,Strain(s) against which the derivative (producing strain) displays enhanced bioactivity,indicator strains,"L. monocytogenes CBC2 and CBC3 as well as Staph. aureus CBC4, C. sporogenes CBC5 and L. lactis CBC7; also recorded: L. monocytogenes CBC2, CBC3, S. aureus CBC4, C. sporogenes CBC5 and L. lactis 7"
"NisinA N20T (ITSISLCTPGCKTGALMGCTMKTATCHCSIHVSK; not fully specified; also: lantibiotic nisin: dehydrated residues and thioether rings not placed; UniProt P13068 24-57, looked up, variant N20T) [nisin A derivative, hinge substitution N20T]",zone size relative to that of the NZ9800 pCI372nisA control,Staph. aureus DPC5245,90%
same,zone size relative to that of the NZ9800 pCI372nisA control,[1],79%
same,Bioactivity relative to control,L. monocytogenes CBC1,−
same,Bioactivity relative to control,L. monocytogenes CBC2,−
same,Bioactivity relative to control,L. monocytogenes CBC3,−
same,Bioactivity relative to control,L. lactis CBC7,−
same,Bioactivity relative to control,L. lactis CBC8,−
same,Bioactivity relative to control,S. aureus CBC4,−
same,Bioactivity relative to control,C. sporogenes CBC5,+
same,Bioactivity relative to control,L. plantarum CBC6,−
same,Strain(s) against which the derivative (producing strain) displays enhanced bioactivity,indicator strains,C. sporogenes CBC5
